Data published in US7410974B2, “Halogenated Quinazolinyl nitrofurans as antibacterial agents” (Ulysses Pharmaceutical Products, Inc., priority 2003, dated 2008).
≈ marks a conversion by molar mass, not a printed value. Like-named read-outs stand apart in the source and are kept apart here.

What was measured:
M. smegmatis ATCC 19420 = test: MIC broth microdilution (NCCLS), fastidious bacteria; type: cell-based, Mycobacterium smegmatis; conditions: Mycolicibacterium smegmatis, ATCC19420, read after 48 hours
Method: (§1) Minimal Inhibitory Concentration (MIC) Determination. Bacteria (primary strain panel, TABLE 1). Susceptibility tests were performed following the recommendations from the National Committee for Clinical Standards (NCCLS). The MICs were determined by a broth microdilution technique using a final volume of 100 μl of cation-adjusted Mueller Hinton Broth (MHBCA) and a bacterial inoculum of 10^5-10^6 Colony Forming Units (CFU)/ml. The inocula were verified and precisely determined by applying 10-μl drops of 10-fold dilutions onto Triptic Soy Agar plates. The CFU were counted after an incubation of 24 h at 35° C. Any experiment showing an inoculum that was more or less than 10^5-10^6 CFU/ml was rejected. Control antibiotics and test compounds were prepared at a concentration equivalent to 2-fold the highest desired final concentration. Compounds were then diluted directly in the 96-well microtiter plates by serial 2-fold dilutions using a multichannel pipette. Microtiter plates were incubated during 24 h at 35° C. and growth was recorded by using a microtiterplate reader at 650 nm as well as by visual observation. The MIC was defined as the lowest concentration of compound yielding no visible growth. […] Fastidious bacteria. The medium used for Listeria monocytogenes, Neisseria meningitidis, and Campylobacter jejuni was MHBCA containing 2% laked horse blood. The medium used for Haemophilus influenzae and Branhamella (Moraxella) catarrhalis was HTM as recommended by the NCCLS. Cultures of these fastidious bacteria were incubated at 35° C. in a 5% CO2 atmosphere. […] The medium used for Bacteroides fragilis was Wilkins Chalgren broth and growth was allowed under an anaerobic atmosphere at 35° C. for 48 hours.

E. faecalis ATCC 29212 = test: MIC broth microdilution (NCCLS); type: cell-based, Enterococcus faecalis; conditions: Enterococcus faecalis, ATCC29212; E. faecalis ATCC 29212; read-out: MIC
Method: as §1

[1] = test system: S. saprophyticus ATCC 15305; test: Minimal Bactericidal Concentration (MBC); type: cell-based; conditions: Staphylococcus saprophyticus, ATCC15305; S. saprophyticus ATCC 15305; 99.9% killing; read-out: MBC
Method: (§2) Minimal Bactericidal Concentration (MBC). After the microtiter plates were read for the determination of the MIC, a 10-μl sample of each clear well (at least 5 wells without visible growth) was applied onto TSA plates for viable counts determination.
(§3) Petri dishes were incubated at 35° C. for exactly 24 h and bacterial colonies were counted.

E. coli ATCC 25922 [2] = test: Minimal Bactericidal Concentration (MBC); type: cell-based; conditions: Escherichia coli, ATCC25922, 99.9% killing
Method: as §2, §3

MRSA strain Sa249c = test: MIC broth microdilution, antibiotic resistant strain panel; type: cell-based, Staphylococcus aureus; conditions: Staphylococcus aureus; multi-resistant MRSA strain Sa249c; read-out: MIC
Method: as §1
(§4) Finally, compounds were also tested against populations of various clinical strains (antibiotic resistant strain panel, TABLE 1).

MRSA strain Sa228c = test: as above; type: cell-based, Staphylococcus aureus; conditions: Staphylococcus aureus; multi-resistant MRSA strain Sa228c; read-out: MIC
Method: as §1, §4

MRSA strain Sa211c = test: as above; type: cell-based, Staphylococcus aureus; conditions: Staphylococcus aureus; multi-resistant MRSA strain Sa211c; read-out: MIC
Method: as §1, §4

MRSA strain Sa248c = test: as above; type: cell-based, Staphylococcus aureus; conditions: Staphylococcus aureus; multi-resistant MRSA strain Sa248c; read-out: MIC
Method: as §1, §4

MRSA strain Sa224c = test: as above; type: cell-based, Staphylococcus aureus; conditions: Staphylococcus aureus; multi-resistant MRSA strain Sa224c; read-out: MIC
Method: as §1, §4

MRSA strain Sa234c = test: as above; type: cell-based, Staphylococcus aureus; conditions: Staphylococcus aureus; multi-resistant MRSA strain Sa234c; read-out: MIC
Method: as §1, §4

MRSA strain Sa253c = test: as above; type: cell-based, Staphylococcus aureus; conditions: Staphylococcus aureus
Method: as §1, §4

MRSA strain Sa212c = test: as above; type: cell-based, Staphylococcus aureus; conditions: Staphylococcus aureus; multi-resistant MRSA strain Sa212c; read-out: MIC
Method: as §1, §4

MRSA strain Sa220c = test: as above; type: cell-based, Staphylococcus aureus; conditions: Staphylococcus aureus; multi-resistant MRSA strain Sa220c; read-out: MIC
Method: as §1, §4

E. faecium ATCC 35667 = test: MIC broth microdilution (NCCLS); type: cell-based, Enterococcus faecium; conditions: Enterococcus faecium, ATCC35667, E. faecium ATCC 35667; read-out: MIC
Method: as §1

S. aureus ATCC 29213 = test: MIC broth microdilution (NCCLS); type: cell-based, Staphylococcus aureus; conditions: Staphylococcus aureus, ATCC29213; S. aureus ATCC 29213; read-out: MIC
Method: as §1

[3] = test system: L. monocytogenes ATCC 13932; test: MIC broth microdilution (NCCLS), fastidious bacteria; type: cell-based; conditions: Listeria monocytogenes, ATCC13932, MHBCA with 2% laked horse blood, 5% CO2
Method: as §1

E. coli ATCC 25922 [4] = test: MIC broth microdilution (NCCLS); type: cell-based, Escherichia coli; conditions: Escherichia coli, ATCC25922, E. coli ATCC 25922 (Reference); read-out: MIC
Method: as §1

[5] = test system: S. saprophyticus ATCC 15305; test: MIC broth microdilution (NCCLS); type: cell-based, Staphylococcus saprophyticus; conditions: Staphylococcus saprophyticus, ATCC15305; S. saprophyticus ATCC 15305; read-out: MIC
Method: as §1

[6] = test system: S. epidermidis ATCC 12228; test: MIC broth microdilution (NCCLS); type: cell-based, Staphylococcus epidermidis; conditions: Staphylococcus epidermidis, ATCC12228; S. epidermidis ATCC 12228; read-out: MIC
Method: as §1

S. aureus MRSA COL = test: MIC broth microdilution (NCCLS); type: cell-based, Staphylococcus aureus; conditions: S. aureus MRSA COL
Method: as §1, with “hours. […]” for “hours.”

B. catarrhalis ATCC 8176 = test: MIC broth microdilution (NCCLS), fastidious bacteria; type: cell-based, Branhamella (Moraxella) catarrhalis; conditions: Moraxella catarrhalis, ATCC8176, HTM, 5% CO2
Method: as §1

E. faecium VanA = test: MIC broth microdilution, antibiotic resistant strain panel; type: cell-based; conditions: Enterococcus faecium; multi-resistant E. faecium VanA; read-out: MIC
Method: as §1, §4

Solubility in water = type: physicochemical
Method: Solubility of Compounds V and XV. The extent of solubility of compounds was evaluated in water.

H. influenzae ATCC 49766 = test: MIC broth microdilution (NCCLS), fastidious bacteria; type: cell-based; conditions: Haemophilus influenzae, ATCC49766, HTM, 5% CO2
Method: as §1

H. influenzae ATCC 49247 = test: as above; type: cell-based; conditions: Haemophilus influenzae, ATCC49247, HTM, 5% CO2
Method: as §1

B. fragilis ATCC 25285 = test: MIC broth microdilution (NCCLS), anaerobic; type: cell-based; conditions: Bacteroides fragilis
Method: as §1

C. jejuni ATCC 33291 = test: MIC broth microdilution (NCCLS), fastidious bacteria; type: cell-based; conditions: Campylobacter jejuni, ATCC33291
Method: as §1

[7] = test system: Y. enterocolytica ATCC 23715; test: MIC broth microdilution (NCCLS); type: cell-based, Yersinia enterocolytica; conditions: Yersinia, ATCC23715, read-out: MIC
Method: as §1

A. baumannii ATCC 19606 = test: MIC broth microdilution (NCCLS); type: cell-based, Acinetobacter baumannii; conditions: Acinetobacter baumannii, ATCC19606, read-out: MIC
Method: as §1

[8] = Staphylococcus aureus, MRSA, read-out: MIC
[9] = ATCC25285, B. fragilis ATCC 25285, Wilkins Chalgren broth, anaerobic, 48 hours, read-out: MIC

Row | SMILES | MIC (M. smegmatis ATCC 19420) [mg/L] | MIC (E. faecalis ATCC 29212) [mg/L] | MBC [1] [mg/L] | MBC (E. coli ATCC 25922 [2]) [mg/L] | MIC (MRSA strain Sa249c) [mg/L] | MIC (MRSA strain Sa228c) [mg/L] | MIC (MRSA strain Sa211c) [mg/L] | MIC (MRSA strain Sa248c) [mg/L] | MIC (MRSA strain Sa224c) [mg/L] | MIC (MRSA strain Sa234c) [mg/L] | MIC (MRSA strain Sa212c) [mg/L] | MIC (MRSA strain Sa220c) [mg/L] | MIC (E. faecium ATCC 35667) [mg/L] | MIC (S. aureus ATCC 29213) [mg/L] | MIC [3] [mg/L] | MIC (E. coli ATCC 25922 [4]) [mg/L] | MIC [5] [mg/L] | MIC [6] [mg/L] | MIC (S. aureus MRSA COL; [8]) [mg/L] | MIC (B. fragilis ATCC 25285; [9]) [mg/L] | further results
1 | CCn1cc(C(=O)O)c(=O)c2cc(F)c(N3CCNCC3)cc21 [Norfloxacin] | 2 (≈ 6.26 µM) | 4 (≈ 12.5 µM) | 4 (≈ 12.5 µM) | 0.06 (≈ 0.188 µM) | 32 (≈ 100 µM) | > 32 | > 32 | 32 (≈ 100 µM) | > 32 | > 32 | > 32 | > 32 | 16 (≈ 50.1 µM) | 1 (≈ 3.13 µM) | 0.008 (≈ 0.0251 µM) | 0.03 (≈ 0.0939 µM) | 2 (≈ 6.26 µM) | 0.5 (≈ 1.57 µM) | 0.5 to 1 (≈ 1.57 to 3.13 µM) |  | MIC (MRSA strain Sa253c; MRSA): > 128 mg/L; MIC (S. aureus MRSA COL): 1 mg/L (≈ 3.13 µM)
2 | CN1CCN(c2cc3nc(C=Cc4ccc([N+](=O)[O-])o4)nc(Nc4ccc(O)cc4)c3cc2F)CC1 [Compound XV, 7-(4-methylpiperazino)-6-fluoro-2-[2-(5-nitro-2-furyl)vinyl]-4-(p-hydroxyanilino)-quinazoline] | 0.25 (≈ 0.51 µM) | 2 to 8 (≈ 4.08 to 16.3 µM) |  |  | 0.5 (≈ 1.02 µM) | 2 (≈ 4.08 µM) | 2 (≈ 4.08 µM) | 0.5 (≈ 1.02 µM) | 1 (≈ 2.04 µM) | 2 (≈ 4.08 µM) | 4 (≈ 8.16 µM) | 0.25 (≈ 0.51 µM) | 8 (≈ 16.3 µM) | 2 (≈ 4.08 µM) | 0.5 (≈ 1.02 µM) |  | 2 (≈ 4.08 µM) | 1 to 2 (≈ 2.04 to 4.08 µM) | 0.5 (≈ 1.02 µM) | 0.5 (≈ 1.02 µM) | MIC (MRSA strain Sa253c; multi-resistant MRSA strain Sa253c, read-out: MIC): 2 mg/L (≈ 4.08 µM); MIC (B. catarrhalis ATCC 8176): 0.5 mg/L (≈ 1.02 µM); MIC (E. faecium VanA): 0.5 mg/L (≈ 1.02 µM); solubility relative to Compound V (Solubility in water): 4 times; solubility (Solubility in water; read-out: solubility in water (no visible particles)): 1 mg/mL (≈ 2040 µM); MIC (H. influenzae ATCC 49766): 2 mg/L (≈ 4.08 µM); MIC (H. influenzae ATCC 49247): 2 mg/L (≈ 4.08 µM)
3 | O=C(N[C@H](CO)[C@H](O)c1ccc([N+](=O)[O-])cc1)C(Cl)Cl [Chloramphenicol] |  | 8 (≈ 24.8 µM) | 16 to 32 (≈ 49.5 to 99 µM) | 16 (≈ 49.5 µM) |  |  |  |  |  |  |  |  | 8 (≈ 24.8 µM) | 16 (≈ 49.5 µM) | 0.001 (≈ 0.00309 µM) | 4 (≈ 12.4 µM) | 4 to 8 (≈ 12.4 to 24.8 µM) | 8 (≈ 24.8 µM) | 8 (≈ 24.8 µM) | 4 (≈ 12.4 µM) | MIC (C. jejuni ATCC 33291; C. jejuni ATCC 33291, MHBCA with 2% laked horse blood, 5% CO2, read-out: MIC): 4 mg/L (≈ 12.4 µM)
4 | C[C@@H](O)[C@H]1C(=O)N2C(C(=O)O)=C(SCCN=CN)C[C@H]12 [Imipenem] |  | 0.5 (≈ 1.67 µM) | 0.03 to 0.06 (≈ 0.1 to 0.2 µM) |  |  |  |  |  |  |  |  |  | 2 (≈ 6.68 µM) | 0.015 (≈ 0.0501 µM) |  | 0.12 (≈ 0.401 µM) | 0.03 (≈ 0.1 µM) | 0.008 to 0.015 (≈ 0.0267 to 0.0501 µM) | 16 (≈ 53.4 µM) |  | MIC [7]: 0.5 mg/L (≈ 1.67 µM); MIC (C. jejuni ATCC 33291): 0.125 mg/L (≈ 0.418 µM); MIC (B. fragilis ATCC 25285; ATCC25285, 48 h): 0.125 to 0.5 mg/L (≈ 0.418 to 1.67 µM); MIC (A. baumannii ATCC 19606): 16 mg/L (≈ 53.4 µM)
